Source: PMC8012331, “Drug-induced hepatic steatosis in absence of severe mitochondrial dysfunction in HepaRG cells: proof of multiple mechanism-based toxicity” (Cell Biology and Toxicology, 2020)
Several values for one entry are separate records, joined by “and”; a condition that tells them apart may be missing. Equal values may be shown once. Read-outs that look alike come from different tables or passages of the source.

Legend:
[1] = Maximum plasma concentration (Cmax) in patients; type: in vivo, human; details: worked out from cited Cmax in patients
[2] = system: de novo lipogenesis (DNL); test: DNL from [2-14C]acetic acid in HepaRG cells; type: cell-based, human; details: 4 days, vs control
Experimental: (§1) Experiments were carried out on passages 9 to 16. […] DPEN was dissolved in water.
DNL was assessed by measuring newly synthesized radiolabeled lipids from [2-^14C]acetic acid, using a protocol adapted from Byrne et al. ([2014]). Briefly, culture medium was removed and cells were washed with warm PBS. Next, cells were incubated for 3 h with phenol red-free William’s E medium containing 1% fatty acid-free BSA, [2-^14C]acetic acid (1850 Bq per well, corresponding to 19.4 pM) and 50 μM cold acetic acid. Medium was then gently removed and cells were washed with warm PBS before adding a mix of hexane/isopropanol (3:2; v/v). Cell culture plates were sealed and incubated for 1 h at room temperature for lipid extraction. After transfer of the plate content in 200-μL microtubes, hexane and PBS were added to have a hexane/isopropanol/PBS ratio of 6:2:3 (v/v/v). Microtubes were then centrifuged at 1000×g for 5 min and radiolabeled lipids were counted in the upper phase with a Tri-Carb 4910TR liquid scintillation counter (PerkinElmer). Results were normalized to total protein content and expressed in comparison to control cells.

[3] = system: apoB secretion; test: apoB level in culture medium (ELISA), HepaRG cells; type: cell-based, human; details: 4 days, culture medium, vs control
Experimental: as §1
Twenty-four hours after the last treatment, cell supernatants were removed and stored at − 80 °C until use for apolipoprotein measurement. ApoB level was measured using the Human Apolipoprotein B ELISA^pro kit from Mabtech (Nacka Strand, Sweden), according to the manufacturer’s instructions. Briefly, 50 μL of samples were diluted 2× in Apo ELISA buffer before a 2-h incubation in the precoated strip plates provided in the kit. The plates were washed and incubated 1 h with the biotinylated monoclonal anti-human apoB (LDL-11-biotin) antibody. The plates were then washed and incubated 1 h with a streptavidin–horseradish peroxidase conjugated antibody. After another washing, 3,3′,5,5′-tetramethylbenzidine (TMB) was used as substrate for 15 min before adding a stop solution. Absorbance at 450 nm was then measured using a POLARstar Omega microplate reader (BMG Labtech, Ortenberg). ApoB level was calculated utilizing a four-parameter standard curve, and normalized to the total cellular protein content and expressed in comparison to control cells.

[4] = patients, ref given per drug, cited from earlier work; for Cmax: read-out: Maximum plasma concentration (Cmax) in patients
[5] = system: HepaRG cells; test: Neutral lipids with Nile red in HepaRG cells; details: 4 days
Experimental: (§2) Briefly, HepaRG cells were seeded in 96-well plates at a density of 2.6 × 10^4 cells/cm^2 and were first incubated in William’s E medium supplemented with 10% FBS (50% FBS from Eurobio and 50% FBS from GE Healthcare), 100 U/mL penicillin, 100 μg/mL streptomycin, 2 mM glutamine, 5 μg/mL insulin, and 50 μM hydrocortisone hemisuccinate. […] During this 1-month period, the culture medium was renewed three times a week. […] HepaRG cells were next cultured in the same FBS/DMSO conditions and incubated for 4 days with each drug at different concentrations. Culture medium was renewed every day and all investigations were performed after 96 h (i.e., 24 h after the fourth treatment). These investigations were mostly performed in 96-well plates except for western blot analysis, for which 6-well plates were used. Experiments were carried out on passages 9 to 16. All drugs (except DPEN), etomoxir, lomitapide, tunicamycin, thapsigargin, and TUDCA were dissolved in DMSO. DPEN was dissolved in water.
(§3) Cells were then incubated with PBS containing 0.1 μg/mL Nile red for 30 min and washed once. […] For each well, four pictures were taken at a magnification of × 20 and analyzed with Columbus software (PerkinElmer) for quantification. These pictures were always taken in four different areas around the center of each well, and these areas were the same from one well to another, as programmed by the Columbus software. This software was also designed to count only living cells after exclusion of dying cells harboring nuclei with abnormal shape or altered Hoechst intensity. […] Neutral lipids were then normalized per number of nuclei and expressed relative to control cells. Examples of images used for neutral lipid quantification are shown in Supplementary Fig. 2.

[6] = system: ERN1 (IRE1α); test: RT-qPCR ERN1 mRNA in HepaRG cells; type: cell-based, human; details: 4 days, vs control
Experimental: Total RNA was extracted with the Nucleospin RNA isolation system purchased from Macherey-Nagel (Düren, Germany), which included a DNase treatment step. Quantification of isolated RNAs was assessed using a Nanodrop 1000 (Thermo Fisher Scientific, Waltham, MA). RNAs were reverse-transcribed into cDNAs using the High-Capacity cDNA Reverse Transcription Kit purchased from Applied Biosystems (Woolston, UK). Gene expression was assessed by real-time quantitative PCR analysis (RT-qPCR) using SYBR Green PCR Master Mix (Applied Biosystems) and a 384-well QuantStudio™ 7 Flex Real-Time PCR System (Thermo Fisher Scientific). Sequences of the primers used to measure gene expression are presented in Supplementary Table 3. Expression of GAPDH was chosen as reference and the 2^−ΔΔCt calculation method was used to express the relative expression of each selected gene.

[7] = system: primary human hepatocytes (PHH); test: Neutral lipids with Nile red in primary human hepatocytes; type: cell-based; details: 4 days
Experimental: Primary human hepatocytes (PHH) were purchased from Biopredic International (Saint-Grégoire, France). Cells were seeded by the supplier in coated 96-well plates at a density of 5 × 10^4 cells/well. Upon receipt, culture medium was removed and replaced by William’s E medium supplemented as previously described for HepaRG cell differentiation, except for DMSO set at 1%. After 2–3 days, cells were treated as for HepaRG cells. For HepaRG cells and PHH, cells were always maintained in incubators at 37 °C with 5% CO2 and saturating humidity.
as §3

[8] = treated patients, ref Schulz M et al., Crit Care 2012 ;16(4):R136, cited from earlier work
[9] = system: HepaRG cells; test: Cellular ATP level (CellTiter-Glo) in HepaRG cells; type: cell-based, human; details: 4 days, vs controls
Experimental: Cellular ATP level was measured using the CellTiter-Glo® Luminescent Cell Viability assay purchased from Promega (Charbonnières, France), according to the manufacturer’s instructions. Briefly, control and treated HepaRG cells were first washed with warm PBS and kept for 30 min at room temperature in phenol red-free William’s E medium. Cells were next incubated with the CellTiter-Glo® reagent for 10 min at room temperature. Cells were then transferred in opaque-walled multiwell plates and the luminescent signal was quantified using a POLARstar Omega microplate reader (BMG Labtech, Ortenberg, Germany). Results were expressed in comparison to control cells.

[10] = system: mitochondrial fatty acid oxidation (mtFAO); test: mtFAO with [U-14C]palmitic acid in HepaRG cells; type: cell-based, human; details: 4 days, vs control
Experimental: as §1
Results were normalized to total protein content determined using the Pierce BCA assay kit from Thermo Fischer Scientific (Waltham, MA). Results were expressed in comparison to control cells.

[11] = system: apoC3 secretion; test: apoC3 level in culture medium (HTRF), HepaRG cells; type: cell-based, human; details: 4 days, culture medium, vs control
Experimental: as §2
Apolipoprotein C3 (apoC3) level was measured using the Human Apolipoprotein C3 kit from Cisbio Bioassays (Codolet, France), according to the manufacturer’s instructions. Briefly, 10 μL of supernatants was incubated with two different specific anti-human apoC3 antibodies, one donor and one acceptor. The detection principle of apoC3 is based on HTRF® (Homogeneous Time Resolved Fluorescence), a time-resolved FRET (Förster Resonance Energy Transfer) technology. After 2 h of incubation, light emission was measured with the Infinite F Nano+ microplate reader (Tecan, Männedorf, Switzerland). ApoC3 level was calculated utilizing standard curve, based on the ratio of A665 nm/A615 nm, and normalized to the total cellular protein content. Results were expressed in comparison to control cells.

[12] = selected concentrations (ATP loss < 30%, not above 100 × Cmax), vs control

SMILES | Concentration corresponding to 100xCmax [1] [µM] | Effect on DNL [2] | Effect on apoB secretion [3] | Maximum plasma concentration (Cmax) in patients [4] [ng/mL] | Cmax [4] [µM] | Accumulation of neutral lipids (steatosis) [5, 12] | Loss of cellular ATP relative to the maximum concentration selected for the study [9] | Effect on mtFAO [10] | Effect on apoC3 secretion [11] | further results
O=c1[nH]cc(F)c(=O)[nH]1 [5FU, 5-fluorouracil] | 42000 | curb this metabolic pathway | reduced the secretion | ≤ 55000 | ≤ 420 | significant accumulation of neutral lipids | 100 µM (loss of cellular ATP above 30% of the controls for higher concentrations, as shown in Supp. fig 1) | significantly enhance mtFAO | reduced the secretion | ERN1 (IRE1α) mRNA level [6]: enhanced IRE1α mRNA level; Steatosis in PHH batches (six batches tested) [7]: induced steatosis in only one PHH batch; Therapeutic blood (or plasma) concentration in patients ([8]; listed as 5-Fluorouracil (5FU)): 0.05 - 0.3 mg/L and 0.38 - 2.3 µM
Oc1ncnc2[nH]ncc12 [ALLO, allopurinol] | 1500 | curb this metabolic pathway | reduced the secretion | ≤ 2050 | ≤ 15 | significant accumulation of neutral lipids | 750 µM (loss of cellular ATP above 30% of the controls for higher concentrations, as shown in Supp. fig 1) | significantly enhance mtFAO | reduced the secretion | ERN1 (IRE1α) mRNA level [6]: enhanced IRE1α mRNA level; Steatosis in PHH batches (six batches tested) [7]: accumulation of neutral lipids in five PHH batches; Therapeutic blood (or plasma) concentration in patients ([8]; listed as Allopurinol (ALLO)): 2 - 19 mg/L and 15 - 140 µM
CC(C)(S)[C@@H](N)C(=O)O [DPEN, D-penicillamine] | 2500 | – | – | ≤ 3760 | ≤ 25 | did not induce steatosis | 2500 µM (slight loss of cellular ATP for this concentration, as shown in Supp. fig 1) | – | – | Accumulation of neutral lipids (steatosis) ([5]; concentrations above 100 × Cmax (100 μM NIF, 5000 μM DPEN)): significant accumulation of neutral lipids; Therapeutic blood (or plasma) concentration in patients ([8]; listed as D-penicillamine (DPEN)): 1.7 - 5.6 mg/L and 11.4 - 37.6 µM
CC(C)(C)NC(=O)[C@@H]1CN(Cc2cccnc2)CCN1C[C@@H](O)C[C@@H](Cc1ccccc1)C(=O)N[C@H]1c2ccccc2C[C@H]1O [INDI, indinavir] | 1300 | curb this metabolic pathway | reduced the secretion | ≤ 8000 | ≤ 13 | significant accumulation of neutral lipids | – | – | reduced the secretion | –
Cn1cc[nH]c1=S [METHI, methimazole] | – | – | – | ≤ 1500 | ≤ 13 | did not induce steatosis | – | – | – | Therapeutic blood (or plasma) concentration in patients ([8]; listed as Methimazole (METHI)): 0.5 - 2.5 mg/L and 4.4 - 22 µM
COC(=O)C1=C(C)NC(C)=C(C(=O)OC)C1c1ccccc1[N+](=O)[O-] [NIF, nifedipine] | – | – | – | – | – | – | – | – | – | Therapeutic blood (or plasma) concentration in patients ([8]; listed as Nifedipine (NIF)): 0.025 - 0.15 mg/L and 0.07 - 0.43 µM
CCOC(=O)[C@@]1(CCCCCCOc2ccc(Cl)cc2)CO1 [etomoxir, (+)-etomoxir] | – | – | – | – | – | – | – | blocked | – | –
O=C(NC1CCN(CCCCC2(C(=O)NCC(F)(F)F)c3ccccc3-c3ccccc32)CC1)c1ccccc1-c1ccc(C(F)(F)F)cc1 [lomitapide] | – | – | inhibited | – | – | – | – | – | – | –
